Measurements as given in article PMC2625337, “Flexible modulation of agonist efficacy at the human A3 adenosine receptor by the imidazoquinoline allosteric enhancer LUF6000” (BMC Pharmacology, 2008).
One block for each compound: values may come before it.

What was measured:
Format in all cases: biochemical
[1] = target: T1, human A1 adenosine receptor (A1 AR) (Homo sapiens, UniProt P30542); conditions: high-efficacy agonist
T1 construct: gene ADORA1; full-length receptor stably expressed in CHO cells, membrane preparation
T1 sequence (P30542 1-326): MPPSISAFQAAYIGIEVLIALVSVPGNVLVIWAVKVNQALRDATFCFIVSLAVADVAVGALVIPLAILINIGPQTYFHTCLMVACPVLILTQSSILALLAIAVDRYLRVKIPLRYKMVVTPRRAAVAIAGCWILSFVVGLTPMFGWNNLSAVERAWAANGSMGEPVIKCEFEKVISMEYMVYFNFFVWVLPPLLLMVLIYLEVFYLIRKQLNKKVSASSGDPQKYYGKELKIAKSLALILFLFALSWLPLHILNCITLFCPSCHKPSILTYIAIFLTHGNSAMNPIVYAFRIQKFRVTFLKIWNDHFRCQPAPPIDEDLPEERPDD

[2] = target: T2, human A3 adenosine receptor (A3 AR) (Homo sapiens, UniProt P0DMS8); assay: […]GTPgammaS binding, CHO membranes
T2 construct: gene ADORA3; full-length receptor stably expressed in CHO cells, membrane preparation
T2 sequence (P0DMS8 1-318): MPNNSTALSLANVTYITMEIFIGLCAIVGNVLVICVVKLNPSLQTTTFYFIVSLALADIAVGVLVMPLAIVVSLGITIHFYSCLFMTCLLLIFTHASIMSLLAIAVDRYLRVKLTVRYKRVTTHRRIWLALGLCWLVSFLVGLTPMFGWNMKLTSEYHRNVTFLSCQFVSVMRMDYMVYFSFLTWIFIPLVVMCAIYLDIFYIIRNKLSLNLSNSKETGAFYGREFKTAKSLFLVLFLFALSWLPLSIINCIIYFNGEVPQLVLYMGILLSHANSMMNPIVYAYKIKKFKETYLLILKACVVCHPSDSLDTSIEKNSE

[3] = target: T2, human A3 adenosine receptor (A3 AR); assay: […]GTPgammaS binding, CHO membranes; conditions: alone, no LUF6000; antagonist
[4] = target: T2, human A3 adenosine receptor (A3 AR); assay: […]GTPgammaS binding, CHO membranes; conditions: agonist alone, no LUF6000

Compound: OC[C@H]1O[C@@H](n2cnc3c(NC4CCCC4)nc(Cl)nc32)[C@H](O)[C@@H]1O [CCPA, 2-chloro-N^6-cyclopentyladenosine]
[35S]GTPgammaS binding, CHO membranes [1]: high-efficacy agonists CPA and CCPA or a low efficacy agonist MRS541 to activate the A1

Compound: CNC(=O)[C@H]1O[C@@H](n2cnc3c(NCc4cccc(I)c4)ncnc32)[C@H](O)[C@@H]1O [IB-MECA]
[35S]GTPgammaS binding, CHO membranes ([2]; agonist): IB-MECA was almost as efficacious as Cl-IB-MECA

Compound: Clc1ccc(Nc2nc3ccccc3c3nc(C4CCCCC4)[nH]c23)cc1Cl [LUF6000, N-(3,4-dichloro-phenyl)-2-cyclohexyl-1H-imidazo [4,5-c]quinolin-4-amine]
[35S]GTPgammaS binding, CHO membranes ([2]; allosteric enhancer, tested at 0.1-10 µM with agonists): LUF6000 showed a flexible modulatory effect of efficacy

Emax (%) [3]: 5.6 ± 2.5%
Compound: OC[C@H]1O[C@@H](n2cnc3c(NCc4cccc(I)c4)nc(Cl)nc32)[C@H](O)[C@@H]1O [MRS542, 2-chloro-N^6-(3-iodobenzyl)adenosine]

Emax (% of NECA) [4]: < 10%
Compound: O=c1[nH]cnc2c1ncn2[C@@H]1O[C@H](CO)[C@@H](O)[C@H]1O [inosine]
